How the values were obtained:
[1] = molecular target: T1, androgen receptor (AR-LBD) (Rattus norvegicus, UniProt P15207); test: Evaluation of androgen receptor affinity (PolarScreen Androgen Receptor Competitor Assay Kit, Red; fluorescence polarization); conditions: 22° C. for 5 hours, relative to binding rate of 1 μM DHT, read-out: AR affinity (pEC50) (converted)
T1 construct: 5 μL of 2×AR-LBD/Fluoromone AL Red Complex contained in the kit; purchased Invitrogen
T1 sequence (P15207 651-882 limits assumed): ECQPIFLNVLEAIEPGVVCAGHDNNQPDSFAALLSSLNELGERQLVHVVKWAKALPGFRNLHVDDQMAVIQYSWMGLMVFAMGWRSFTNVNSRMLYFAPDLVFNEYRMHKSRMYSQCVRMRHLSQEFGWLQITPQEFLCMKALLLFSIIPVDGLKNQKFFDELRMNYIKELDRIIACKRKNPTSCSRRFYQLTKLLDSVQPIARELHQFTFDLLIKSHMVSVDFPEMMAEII
Method in brief: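 Duplicate wells; compound plus AR-LBD tracer complex incubated 22° C for 5 h, then FP measured. Effect compared with 1 μM DHT; 50%-effect concentration expressed as pEC50.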

[2] = molecular target: T2, human androgen receptor (Homo sapiens, UniProt P10275); test: Reporter assay of an androgen receptor responsive sequence (luciferase, transiently transfected HEK293 cells); assay type: cell-based; conditions: 24 hours incubation, relative to activity of 100 nM DHT, read-out: AR transcriptive activity (pEC50) (converted)
T2 construct: expressed in transfected cells; host or cells: HEK293
T2 sequence (P10275 1-920): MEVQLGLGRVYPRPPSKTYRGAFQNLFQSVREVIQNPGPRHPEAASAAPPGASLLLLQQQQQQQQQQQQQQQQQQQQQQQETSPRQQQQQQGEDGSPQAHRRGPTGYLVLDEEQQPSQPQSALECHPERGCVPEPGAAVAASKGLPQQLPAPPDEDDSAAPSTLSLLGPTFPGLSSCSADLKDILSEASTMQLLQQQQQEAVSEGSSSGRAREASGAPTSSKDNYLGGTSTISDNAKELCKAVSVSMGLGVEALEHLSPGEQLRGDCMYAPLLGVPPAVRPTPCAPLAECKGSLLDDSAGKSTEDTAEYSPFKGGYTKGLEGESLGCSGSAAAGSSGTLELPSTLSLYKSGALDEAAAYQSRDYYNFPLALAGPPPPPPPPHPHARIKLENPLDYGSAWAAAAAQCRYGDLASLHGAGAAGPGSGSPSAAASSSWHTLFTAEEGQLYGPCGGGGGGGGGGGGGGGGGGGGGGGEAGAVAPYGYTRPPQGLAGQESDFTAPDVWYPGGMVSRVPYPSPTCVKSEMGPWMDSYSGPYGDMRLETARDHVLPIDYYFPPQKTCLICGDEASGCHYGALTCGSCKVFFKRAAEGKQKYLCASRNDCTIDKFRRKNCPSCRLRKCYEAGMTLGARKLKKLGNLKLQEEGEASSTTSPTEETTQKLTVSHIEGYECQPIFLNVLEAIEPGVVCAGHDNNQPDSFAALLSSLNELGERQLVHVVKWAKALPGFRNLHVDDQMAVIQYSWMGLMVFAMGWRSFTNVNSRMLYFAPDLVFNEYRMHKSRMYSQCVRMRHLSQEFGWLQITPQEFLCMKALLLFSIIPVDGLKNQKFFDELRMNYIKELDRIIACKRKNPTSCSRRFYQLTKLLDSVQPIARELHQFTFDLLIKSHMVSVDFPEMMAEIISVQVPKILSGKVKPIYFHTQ
Method in brief: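 Agonism scored as pEC50, fitted by 4-parameter curve against the response to 100 nM DHT, from dual-luciferase readout after 24 h compound treatment. Cells were HEK293 co-transfected (3 h) with human AR expression vector, androgen-responsive firefly reporter and Renilla control, in charcoal-stripped serum.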

Row | SMILES | EC50 [1] | EC50 [2]
1 | COc1ccc(CCN(Cc2ccccc2)c2nc(C(=O)NS(C)(=O)=O)c(C)s2)cc1 [Compound 678, 2-[benzyl-[2-(4-methoxyphenyl)ethyl]amino]-5-methyl-N-methylsulfonyl-thiazole-4-carboxamide] | 50.1 nM | 1580 nM
2 | Cc1sc(N(Cc2ccc(Br)cc2)c2ccc(C#N)cc2)nc1C(=O)NS(C)(=O)=O [Compound 129, 2-[N-[(4-bromophenyl)methyl]-4-cyano-anilino]-5-methyl-N-methylsulfonyl-thiazole-4-carboxamide] | 39.8 nM | 20 nM
3 | Cc1sc(N(CCc2ccc(Cl)cc2)Cc2ccc(Cl)cn2)nc1C(=O)NS(C)(=O)=O [Compound 158, 2-[2-(4-chlorophenyl)ethyl-[(5-chloro-2-pyridyl)methyl]amino]-5-methyl-N-methylsulfonyl-thiazole-4-carboxamide] | 100 nM | 631 nM
4 | COCCCS(=O)(=O)NC(=O)c1nc(N(CCc2ccc(OC(F)(F)F)cc2)Cc2ccc(C(F)(F)F)nc2)oc1C [Compound 565, N-(3-methoxypropylsulfonyl)-5-methyl-2-[2-[4-(trifluoromethoxy)phenyl]ethyl-[[6-(trifluoromethyl)-3-pyridyl]methyl]amino]oxazole-4-carboxamide] | 63.1 nM | 2000 nM
5 | CCC(CC)CN(c1ccc(C#N)cc1)c1nc(C(=O)NS(C)(=O)=O)c(C)s1 [Compound 65, 2-[4-cyano-N-(2-ethylbutyl)anilino]-5-methyl-N-methylsulfonyl-thiazole-4-carboxamide] | 126 nM | > 10000 nM
6 | Cc1sc(N(Cc2ccc(Cl)cc2)c2ccc(C(F)(F)F)nc2)nc1C(=O)NS(C)(=O)=O [Compound 470, 2-[(4-chlorophenyl)methyl-[6-(trifluoromethyl)-3-pyridyl]amino]-5-methyl-N-methylsulfonyl-thiazole-4-carboxamide] | 126 nM | 158 nM
7 | CCc1oc(N(Cc2ccc(Cl)c(Cl)c2)c2ccc(C#N)cc2)nc1C(=O)NS(C)(=O)=O [Compound 633, 2-[4-cyano-N-[(3,4-dichlorophenyl)methyl]anilino]-5-ethyl-N-methylsulfonyl-oxazole-4-carboxamide] | 31.6 nM | 126 nM
8 | Cc1sc(N(CCc2ccc3c(c2)OCO3)Cc2ccccc2)nc1C(=O)NS(C)(=O)=O [Compound 708, 2-[2-(1,3-benzodioxol-5-yl)ethyl-benzyl-amino]-5-methyl-N-methylsulfonyl-thiazole-4-carboxamide] | 79.4 nM | 501 nM
9 | Cc1sc(N(Cc2ccccc2)c2ccc(OC(F)F)cc2)nc1C(=O)NS(C)(=O)=O [Compound 91, 2-[N-benzyl-4-(difluoromethoxy)anilino]-5-methyl-N-methylsulfonyl-thiazole-4-carboxamide] | 100 nM | 1580 nM
10 | Cc1oc(N(CCc2ccc(Cl)cc2)Cc2ccc(OC(F)(F)F)cc2)nc1C(=O)NS(C)(=O)=O [Compound 544, 2-[2-(4-chlorophenyl)ethyl-[[4-(trifluoromethoxy)phenyl]methyl]amino]-5-methyl-N-methylsulfonyl-oxazole-4-carboxamide] | 39.8 nM | 316 nM
11 | Cc1sc(N(Cc2ccc3c(c2)C(O)CC3)c2ccc(C#N)cc2)nc1C(=O)NS(C)(=O)=O (stereo not drawn) [Compound 484, 2-[4-cyano-N-[(3-hydroxyindan-5-yl)methyl]anilino]-5-methyl-N-methylsulfonyl-thiazole-4-carboxamide] | 158 nM | 126 nM
12 | CCS(=O)(=O)NC(=O)c1nc(N(Cc2ccccc2)c2ccc(C#N)cc2)sc1C [Compound 362, 2-(N-benzyl-4-cyano-anilino)-N-ethylsulfonyl-5-methyl-thiazole-4-carboxamide] | 63.1 nM | 251 nM
13 | COCCCCS(=O)(=O)NC(=O)c1nc(N(Cc2ccc(OC(F)(F)F)cc2)c2ccc(C#N)cc2)sc1C [Compound 539, 2-[4-cyano-N-[[4-(trifluoromethoxy)phenyl]methyl]anilino]-N-(4-methoxybutylsulfonyl)-5-methyl-thiazole-4-carboxamide] | 15.8 nM | 158 nM
14 | CS(=O)(=O)NC(=O)c1nc(N(Cc2ccc(F)cc2)c2ccc(C#N)cc2)sc1Br [Example 244, 5-bromo-2-[4-cyano-N-[(4-fluorophenyl)methyl]anilino]-N-methylsulfonyl-thiazole-4-carboxamide] | 63.1 nM | 39.8 nM
15 | Cc1sc(N(Cc2cc(F)cc(F)c2)c2ccc(C#N)cc2)nc1C(=O)NS(C)(=O)=O [Compound 96, 2-[4-cyano-N-[(3,5-difluorophenyl)methyl]anilino]-5-methyl-N-methylsulfonyl-thiazole-4-carboxamide] | 79.4 nM | 100 nM
16 | Cc1sc(N(Cc2cccc(N3CCCCC3)c2)c2ccc(C#N)cc2)nc1C(=O)NS(C)(=O)=O [Example 217, 2-[4-cyano-N-[[3-(1-piperidyl)phenyl]methyl]anilino]-5-methyl-N-methylsulfonyl-thiazole-4-carboxamide] | 50.1 nM | 3160 nM
17 | COC[C@H](C)Oc1ccc(CN(c2ccc(C#N)cc2)c2nc(C(=O)NS(C)(=O)=O)c(C)s2)cc1 [Compound 584, 2-[4-cyano-N-[[4-[(1S)-2-methoxy-1-methyl-ethoxy]phenyl]methyl]anilino]-5-methyl-N-methylsulfonyl-thiazole-4-carboxamide] | 79.4 nM | 3160 nM
18 | Cc1sc(N(Cc2ccccc2)CC(F)(F)c2ccc(Cl)cc2)nc1C(=O)NS(C)(=O)=O [Compound 329, 2-[benzyl-[2-(4-chlorophenyl)-2,2-difluoro-ethyl]amino]-5-methyl-N-methylsulfonyl-thiazole-4-carboxamide] | 126 nM | 3980 nM
19 | Cc1sc(N(Cc2ccc3c(c2)OCO3)c2ccc(C#N)cc2)nc1C(=O)NS(C)(=O)=O [Compound 128, 2-[N-(1,3-benzodioxol-5-ylmethyl)-4-cyano-anilino]-5-methyl-N-methylsulfonyl-thiazole-4-carboxamide] | 39.8 nM | 100 nM
20 | CS(=O)(=O)NC(=O)c1nc(N(Cc2ccc(Cl)cn2)c2ccc(C#N)cc2)sc1Br [Compound 641, 5-bromo-2-[N-[(5-chloro-2-pyridyl)methyl]-4-cyano-anilino]-N-methylsulfonyl-thiazole-4-carboxamide] | 126 nM | 79.4 nM
21 | Cc1sc(N(CC2CCC3(CC2)CC3)c2ccc(C#N)cc2)nc1C(=O)NS(C)(=O)=O [Compound 489, 2-[4-cyano-N-(spiro[2.5]octan-6-ylmethyl)anilino]-5-methyl-N-methylsulfonyl-thiazole-4-carboxamide] | 79.4 nM | 1000 nM
22 | Cc1sc(N(Cc2cccc3cccnc23)c2ccc(C#N)cc2)nc1C(=O)NS(C)(=O)=O [Compound 390, 2-[4-cyano-N-(8-quinolylmethyl)anilino]-5-methyl-N-methylsulfonyl-thiazole-4-carboxamide] | 126 nM | 200 nM
23 | COCCCS(=O)(=O)NC(=O)c1nc(N(CCc2ccc(C#N)cc2)Cc2ccc(OC(F)(F)F)cc2)sc1C [Compound 740, 2-[2-(4-cyanophenyl)ethyl-[[4-(trifluoromethoxy)phenyl]methyl]amino]-N-(3-methoxypropylsulfonyl)-5-methyl-thiazole-4-carboxamide] | 25.1 nM | 1000 nM
24 | Cc1sc(N(Cc2ccccc2)c2ccc(-n3cncn3)cc2)nc1C(=O)NS(C)(=O)=O [Compound 61, 2-[N-benzyl-4-(1,2,4-triazol-1-yl)anilino]-5-methyl-N-methylsulfonyl-thiazole-4-carboxamide] | 501 nM | 3160 nM
